US6506766B1 (Abbott Laboratories, priority 1998, dated 2003)

Key:
[1] = molecular target: T1, human glucocorticoid receptor-α [GRX] isoform (Homo sapiens, UniProt P04150); assay: Radioligand binding with human glucocorticoid receptor cytosol ([3H]-dexamethasone competition); details: GRX cytosol expressed in insect SF21 cells, [3H]-Dex ~0.9 nM, 4° C. overnight; Ki by Cheng-Prusoff, KL ~[…]; read-out: Ki (nM) GR
T1 construct: host or cells: insect SF21 cells (baculovirus)
T1 sequence (P04150 1-777): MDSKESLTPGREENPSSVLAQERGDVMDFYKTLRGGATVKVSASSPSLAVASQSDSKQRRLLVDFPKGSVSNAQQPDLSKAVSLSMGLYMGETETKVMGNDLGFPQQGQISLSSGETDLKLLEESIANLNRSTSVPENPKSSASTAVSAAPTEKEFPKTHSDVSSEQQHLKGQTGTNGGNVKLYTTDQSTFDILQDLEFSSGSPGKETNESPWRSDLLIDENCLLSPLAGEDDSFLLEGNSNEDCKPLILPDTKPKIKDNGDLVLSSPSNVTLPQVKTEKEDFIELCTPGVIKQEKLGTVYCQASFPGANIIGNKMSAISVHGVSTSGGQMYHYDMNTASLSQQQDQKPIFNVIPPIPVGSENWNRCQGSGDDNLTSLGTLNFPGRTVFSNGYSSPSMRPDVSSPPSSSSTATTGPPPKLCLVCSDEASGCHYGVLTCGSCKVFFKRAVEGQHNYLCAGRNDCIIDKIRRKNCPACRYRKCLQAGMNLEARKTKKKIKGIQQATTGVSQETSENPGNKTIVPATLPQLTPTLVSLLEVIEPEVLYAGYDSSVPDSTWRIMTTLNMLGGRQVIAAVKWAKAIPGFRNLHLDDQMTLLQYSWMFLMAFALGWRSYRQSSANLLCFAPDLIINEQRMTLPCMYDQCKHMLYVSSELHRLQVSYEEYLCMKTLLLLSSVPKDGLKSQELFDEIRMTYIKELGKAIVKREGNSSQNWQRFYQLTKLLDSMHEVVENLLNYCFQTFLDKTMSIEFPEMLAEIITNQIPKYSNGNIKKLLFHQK

[2] = molecular target: T2, human progesterone receptor-A [PRA] isoform (Homo sapiens, UniProt P06401); assay: Radioligand binding with human progesterone receptor cytosol ([3H]-progesterone competition); details: PRA cytosol expressed in insect SF21 cells, [3H]Prog ~0.8 nM, 4° C. overnight; Ki by Cheng-Prusoff, KL ~4.5 nM; read-out: Ki (nM) PR
T2 construct: host or cells: insect SF21 cells (baculovirus)
T2 sequence (P06401 1-769 isoform P06401-2): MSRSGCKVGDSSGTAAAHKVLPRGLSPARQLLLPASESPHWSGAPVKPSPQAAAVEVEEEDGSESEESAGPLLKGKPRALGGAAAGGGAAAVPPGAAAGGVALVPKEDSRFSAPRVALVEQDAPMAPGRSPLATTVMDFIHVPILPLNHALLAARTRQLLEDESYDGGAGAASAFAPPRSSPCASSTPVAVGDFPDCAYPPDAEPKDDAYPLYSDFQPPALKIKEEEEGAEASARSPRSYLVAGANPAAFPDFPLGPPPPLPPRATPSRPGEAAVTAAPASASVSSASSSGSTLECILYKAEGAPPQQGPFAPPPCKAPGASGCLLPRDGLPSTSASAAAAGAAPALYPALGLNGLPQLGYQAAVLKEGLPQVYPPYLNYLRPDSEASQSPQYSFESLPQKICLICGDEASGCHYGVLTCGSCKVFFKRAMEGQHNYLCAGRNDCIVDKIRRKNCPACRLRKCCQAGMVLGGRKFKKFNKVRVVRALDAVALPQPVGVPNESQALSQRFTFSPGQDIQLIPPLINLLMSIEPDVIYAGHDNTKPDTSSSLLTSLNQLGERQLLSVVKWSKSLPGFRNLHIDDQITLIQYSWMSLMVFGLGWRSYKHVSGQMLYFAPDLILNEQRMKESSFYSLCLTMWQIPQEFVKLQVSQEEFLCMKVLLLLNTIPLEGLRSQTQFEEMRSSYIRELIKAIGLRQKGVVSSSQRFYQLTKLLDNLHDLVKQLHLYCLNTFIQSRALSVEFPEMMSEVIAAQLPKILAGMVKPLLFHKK

Ki [1] [nM] | Ki [2] [nM] | Structure (SMILES)
9.7 | ≥ 10000 | COc1cccc2c1-c1ccc3c(c1C(c1cc(C)cc(N4CCCC4)c1)O2)C(C)=CC(C)(C)N3 (centres unmarked) [Example 113, 2,5-Dihydro-10-methoxy-2,2,4-trimethyl-5-[3-methyl-5-(1H-pyrrolidin-1-yl)phenyl]1H-[1]benzopyrano[3,4-f]quinoline]
17 | ≥ 10000 | C=CCNc1cc(C)cc(C2Oc3cccc(OC)c3-c3ccc4c(c32)C(C)=CC(C)(C)N4)c1 (centres unmarked) [Example 115]
7.2 | ≥ 10000 | COCCNc1cc(C)cc(C2Oc3cccc(OC)c3-c3ccc4c(c32)C(C)=CC(C)(C)N4)c1 (centres unmarked) [Example 116, 3-(2,5-Dihydro-10-methoxy-2,2,4-trimethyl-1H-[1]benzopyrano[3,4-f]quinolin-5-yl)-N-(2-methoxyethyl)-5-methylbenamine]
43 | ≥ 10000 | COc1cccc2c1-c1ccc3c(c1C(c1cc(C)cc(NC(=O)N(C)C)c1)O2)C(C)=CC(C)(C)N3 (centres unmarked) [Example 118, N′-[3-(2,5-Dihydro-10-methoxy-2,2,4-trimethyl-1H-1benzopyrano[3,4-f]quinolin-5-yl)-5-methylphenyl]-N,N-dimethylurea]
6.9 | ≥ 10000 | COc1cccc2c1-c1ccc3c(c1C(c1cccc(NCc4ccccc4)c1)O2)C(C)=CC(C)(C)N3 (centres unmarked) [Example 119, N-[3-(2,5-Dihydro-10-methoxy-2,2,4-trimethyl-1H-[1]benzopyrano[3,4-f]quinolin-5-yl)phenyl]benzenemethanamine]
30.3 | 6240 | COc1cccc2c1-c1ccc3c(c1C(=Cc1cc(Cl)cc(Cl)c1)O2)C(C)=CC(C)(C)N3 [Example 120, 5-[(3,5-dichlorphenyl)methylen]-2,5-dihydro-10-methoxy-2,2,4-trimethyl-1H-[1]benzopyrano[3,4-f]puinoline]
11.3 | 672 | COc1cccc2c1-c1ccc3c(c1C(=Cc1ccc(Cl)cc1)O2)C(C)=CC(C)(C)N3 [Example 121, 5-[(4-chlorophenyl)methylene]-2,5-dihydro-10-methoxy-2,2,4-trimethyl-1H-[1]benzopyrano[3,4-f]quinoline]
11.8 | 1410 | COc1cccc2c1-c1ccc3c(c1C(=Cc1cccc(C(F)(F)F)c1)O2)C(C)=CC(C)(C)N3 [Example 122, 2,5-Dihydro-10-methoxy-2,2,4-trimethyl-5-[[3-(trifluoromethyl)phenyl]methylene-]1H-[1]-benzopyrano[3,4-f]quinoline]
6.1 | 9570 | COc1cccc2c1-c1ccc3c(c1C(=Cc1c(F)cccc1F)O2)C(C)=CC(C)(C)N3 [Example 123]
3.2 | 1610 | COc1cccc2c1-c1ccc3c(c1C(=Cc1ccccc1Cl)O2)C(C)=CC(C)(C)N3 [Example 124]
36.6 | ≥ 10000 | COc1cccc2c1-c1ccc3c(c1C(=Cc1c(Cl)cccc1Cl)O2)C(C)=CC(C)(C)N3 [Example 125]
2.9 | 1410 | COc1cccc2c1-c1ccc3c(c1C(=Cc1ccccc1F)O2)C(C)=CC(C)(C)N3 [Example 126]
29.3 | ≥ 10000 | COc1cccc2c1-c1ccc3c(c1C(=CC1=NC(C)(C)CO1)O2)C(C)=CC(C)(C)N3 [Example 127, 2,5-Dihydro-10-methoxy-2,2,4-trimethyl-5-[(4,5-dihydro-4,4-dimethyl-2-oxazolyl)methylene]-1H-[1]benzopyrano[3,4-f]quinoline]
5.9 | ≥ 10000 | COc1cccc2c1-c1ccc3c(c1C(=Cc1ccccn1)O2)C(C)=CC(C)(C)N3 [Example 128, 2,5-Dihydro-10-methoxy-2,2,4-trimethyl-5-(2-pyridinylmethylene)-1H-[1]benzopyrano[3,4-f]quinoline]
5.5 | 3620 | COc1cccc2c1-c1ccc3c(c1C(c1cccs1)O2)C(C)=CC(C)(C)N3 (centres unmarked) [Example 129, 2,5-Dihydro-10-methoxy-2,2,4-trimethyl-5-(2-thienyl)-1H-[1]benzopyrano[3,4-f]quinoline]
11.9 | 1050 | C=CCC1Oc2ccc(OC)c(OC)c2-c2ccc3c(c21)C(C)=CC(C)(C)N3 (centres unmarked) [Example 130, 2,5-Dihydro-9,10-dimethoxy-2,2,4-trimethyl-5-(2-propenyl)-1H-[1]benzopyrano[3,4-f]quinoline]
7.71 | 996 | COc1ccc2c(c1OC)-c1ccc3c(c1C(C1C=CCCC1)O2)C(C)=CC(C)(C)N3 (centres unmarked) [Example 131, 5-(2-Cyclohexen-1-yl)-2,5-dihydro-9,10-dimethoxy-2,2,4-trimethyl-1H-[1]benzopyrano[3,4-f]quinoline]
230 | 9890 | C=C(C)CCC1Oc2cccc(OC)c2-c2ccc3c(c21)C(C)=CC(C)(C)N3 (centres unmarked) [Example 132, 2,5-Dihydro-10-methoxy-5-(3-methyl-3-butenyl)-2,2,4-trimethyl-1H-[1]benzopyrano[3,4-f]quinoline]
235 | 4800 | C=CC1(C2Oc3cccc(OC)c3-c3ccc4c(c32)C(C)=CC(C)(C)N4)CCCCC1 (centres unmarked) [Example 139, 2,5-Dihydro-10-methoxy-5-(1-ethenyl-1-cyclohexyl)-2,2,4-trimethyl-1H-[1]benzopyrano[3,4-f]quinoline]
13 | ≥ 10000 | COc1cccc2c1-c1ccc3c(c1C(C1C=CCCC1(C)C)O2)C(C)=CC(C)(C)N3 (centres unmarked) [Example 140]
106 | ≥ 10000 | COc1cccc2c1-c1ccc3c(c1C(C1CCC=C(CO)C1)O2)C(C)=CC(C)(C)N3 (centres unmarked) [Example 150, 2,5-Dihydro-10-methoxy-5-(3-hydroxymethyl-3-cyclohexenyl)-2,2,4-trimethyl-1H-[1]benzopyrano[3,4-f]quinoline]
298 | ≥ 10000 | COc1cccc2c1-c1ccc3c(c1C(c1c[nH]c4ccccc14)O2)C(C)=CC(C)(C)N3 (centres unmarked) [Example 151, 2,5-Dihydro-10-methoxy-5-(3-indolyl)-2,2,4-trimethyl-1H-[1]benzopyrano[3,4-f]quinoline]
0.7 | ≥ 10000 | COc1cccc2c1-c1ccc3c(c1[C@H]([C@@H]1C=C(C)CCC1)O2)C(C)=CC(C)(C)N3 [Example 154]
0.86 | ≥ 10000 | COc1cccc2c1-c1ccc3c(c1[C@H]([C@H]1C=C(CO)CCC1)O2)C(C)=CC(C)(C)N3 [Example 155]
0.9 | 4100 | COc1cccc2c1-c1ccc3c(c1[C@@H]([C@@H]1C=C(CO)CCC1)O2)C(C)=CC(C)(C)N3 [Example 156, (+) (5R,3′S) 2,5-Dihydro-10-methoxy-5-(1-hydroxymethyl-3-cyclohexenyl)-2,2,4-trimethyl-1H-[1]benzopyrano[3,4-f]quinoline]
1.5 | 433 | COc1cccc2c1-c1ccc3c(c1[C@H]([C@H]1C=C(C)CCC1)O2)C(C)=CC(C)(C)N3 [Example 157, (−)-(5S,3′R) 2,5-Dihydro-10-methoxy-5-(1-methyl-3-cyclohexenyl)-2,2,4-trimethyl-1H-[1]benzopyrano[3,4-f]quinoline]
48 | ≥ 10000 | COc1cccc2c1-c1ccc3c(c1[C@@H]([C@@H]1C=C(C)CCC1)O2)C(C)=CC(C)(C)N3 [Example 158]
3.8 | 1840 | COc1cccc2c1-c1ccc3c(c1C(C1C=C(CCl)CCC1)O2)C(C)=CC(C)(C)N3 (centres unmarked) [Example 159]
